Test results as given in patent US7902174B2, “Antiviral composition” (priority 2009, dated 2011).
Where “and” joins values, the source holds several entries; their conditions need not be identical. Equal entries are not always repeated.

Legend:
Sprague-Dawley rats = experiment: In vivo toxicity study in rats, oral administration (gavage); conditions: increasing amounts up to 2 g/kg body weight
Excerpt: (b) Oral Administration: Sprague-Dawley rats weighing approximately 250 g were orally gavaged with increasing amounts of polysulfate polymethylsulfate dextrin dissolved in sterile water up to a dose of 2 g/kg body weight.

[1] = system: Human Immunodeficiency Virus; experiment: Anti-HIV testing in cell culture: inhibition of cell-to-cell transmission of HIV measured as p24 protein production; format: cell-based; conditions: for MEAN P24 value: mean of three tests; for % VIRAL CONCENTRATION: relative to 0.0 μM = 100.0; for P24 value as measurement of HIV concentration: separate efficacy tests (samples 1-3)
Procedure: Testing was performed independently at the NIH using standard testing protocol.

polysulfate polymethylsulfate dextrin
toxic effects after oral administration (Sprague-Dawley rats): No toxic effects
MEAN P24 value ([1]; 0.32 μM): 664.0 pg/mL
% VIRAL CONCENTRATION ([1]; 0.32 μM): 96.1%
P24 value as measurement of HIV concentration ([1]; 0.32 μM): 672.3 pg/mL and 654.6 pg/mL and 665.0 pg/mL
MEAN P24 value ([1]; 1.0 μM): 371.5 pg/mL
% VIRAL CONCENTRATION ([1]; 1.0 μM): 53.7%
P24 value as measurement of HIV concentration ([1]; 1.0 μM): 407.1 pg/mL and 351.2 pg/mL and 356.1 pg/mL
MEAN P24 value ([1]; 3.2 μM): 5.5 pg/mL
% VIRAL CONCENTRATION ([1]; 3.2 μM): 0.8%
MEAN P24 value ([1]; 10 μM): -6.1 pg/mL
% VIRAL CONCENTRATION ([1]; 10 μM): −0.9%
MEAN P24 value ([1]; 32 μM): -8.8 pg/mL
% VIRAL CONCENTRATION ([1]; 32 μM): −1.3%
MEAN P24 value ([1]; 100 μM): -27 pg/mL
% VIRAL CONCENTRATION ([1]; 100 μM): −3.9%
IC50 ([1]; average of three separate tests, p24 production, cell-to-cell transmission of HIV, read-out: calculated 50% inhibition (IC50) / average inhibitory concentration 50%): 1160 nM
